Laboratory results reported in patent publication US11419843B2, “Small molecule BCL-2 functional converters as cancer therapeutics” (Oregon State University, priority 2016, dated 2022).
“Also recorded” adds a separate entry of the source.

Experiments:
Assay type in all cases: cell-based, human
[1] = tested on: MDA-MB-231/Vector and MDA-MB-231/Bcl-2 cells; experiment: Viability screening assay in MDA-MB-231 cells with high and low Bcl-2 (CellTiter Glo); details: for Bcl-2 selective reduction in viability, MDA-MB-231/Bcl-2 vs MDA-MB-231/Vector: 10 μM, 24 h, 10% serum
Protocol: In one example, a triple negative breast cancer cell line, MDA-MB-231, was used for screening these libraries. […] At the end of the assay, cell viability was determined using the cell titer Glo assay. […] A hit was defined as a compound inducing more than 20% reduction in viability of MDA-MB-231/Bcl-2 cells, compared to vector controls (MDA-MB-231/Vector). In the next step these shortlisted small molecules were tested for their ability to convert the conformation of Bcl-2 into a pro-apoptotic one.
To screen for Bcl-2 selective compounds, MDA-MB-231 cells (MDA-MB-231/Vector and MDA-MB-231/Bcl-2) were plated at 4000 cells per well in a 96 well black opaque plate. The day after plating the cells, treatment from the library plates was done so as to add 1 μL of the compound into the cells, resulting in 10 μM concentration. For non-specific […], 25 nM of staurosporin was used. […] Post treatment viability was assessed by CellTiter Glo Cell Viability assay (Promega Inc., Madison, Wis.) as per manufacturer instructions.
Viability for test compounds in each cell line (MDA-MB-231/Vector and MDA-MB-231/Bcl-2) was normalized to their respective vehicle treatments. Compounds that had at least 20% less viability in the MDA-MB-231/Bcl-2 cell line than the MDA-MB-231/Vector cell line were selected as initial hits and shortlisted for revalidation. Revalidated compounds were reordered for further testing and characterization. All data analyses were performed using Microsoft Excel.

[2] = tested on: Bcl-2 low and high expressing Jurkat lymphoma cells (Jurkat/Vector, Jurkat/Bcl-2); experiment: Cell viability in Bcl-2 low and high expressing Jurkat cells; details: for Effect of Bcl-2 expression on Jurkat cells exposed to cancer therapeutics: Jurkat cells with high and low expression of Bcl-2 (FIG. 9G); for Bcl-2 dependent effects in Jurkat Lymphoma cells: Bcl-2 low and high expressing Jurkat lymphoma cells treated for 72 hours with various concentrations; for minimal effective concentration: Homo sapiens, Jurkat lymphoma cells, 72 hours, n/d means no reduction was detected at concentrations tested, read-out: Lowest effective dose (minimal effective concentration that induced Bcl-2-dependent reduction in cell viability)
[3] = tested on: MDA-MB-468 parental and derived paclitaxel or doxorubicin resistant cells; experiment: Viability of MDA-MB-468 parental and derived resistant cells; details: 72 hours
Protocol: Percentage viability relative to vehicle treatment. Representative of three independent assays in triplicate.
Percentage viability relative to vehicle treatment.
Percentage viability relative to vehicle treatment. Representative of three independent assays conducted in triplicate.
(§1) Cells of interest were plated at 2000 cells per well in 96-well black tissue culture plate and allowed to adhere to the plate overnight. Viability assays were performed using 10% serum medium unless otherwise stated. Drugs were diluted in supplemented tissue culture medium and added at increasing concentrations, with DMSO as a vehicle control. Cells were then incubated for either 48 hour or 72 hours in presence of the compound, Promega Titer Glo was added to the wells at the assay end point according to manufacturer's protocol. Luminescence was measured using Tropix TR717 Microplate luminometer. Percentage of viable cells is relative to vehicle (100%). As a complementary viability assay, eBioscience Fixable Viability Dye eFluor 660(65-0864) was used to stain dead cells and analyzed using flow cytometry.

[4] = tested on: H460 parental and derived paclitaxel resistant cells; experiment: Viability of H460 parental and paclitaxel resistant cells
Protocol: Percentage viability relative to vehicle treatment was calculated. Representative of three independent assays conducted in triplicate.
FIG. […] Percentage viability relative to vehicle treatment. Representative of three independent assays conducted in triplicate.
Representative of three independent assays conducted in triplicate.
Cell lines were obtained from ATCC and maintained according to manufacturer's instructions. The human lung cancer cell line NCI-H460, H69AR (ATCC) were cultured in RPMI medium (Corning) containing 10% FBS. The human breast cancer cell line MDA-MB-231 was cultured in DMEM medium (Corning) containing 10% FBS. All cell lines were maintained at 5% CO2 and 37° C. Paclitaxel resistant H460 cells were derived by treating cells once a week over 6 weeks, initially with 1 nM paclitaxel and then increasing dose incrementally up to 100 nM. Once resistance was confirmed, paclitaxel was withdrawn from the cells. Resistance to paclitaxel was maintained without presence of paclitaxel measured up to 2 months. A parental line was maintained for a similar number of passages as the resistant line. All experiments were performed using cells that had not been treated with paclitaxel in at least three passages.
as §1, with “Cells were then incubated for either 48 hour or 72 hours in presence of the compound, Promega Titer Glo was added to the wells at the assay end point according to manufacturer's protocol.” left out

[5] = tested on: H460 parental and resistant cells; experiment: Annexin-V apoptosis assay in H460 parental and resistant cells; details: 10 nM paclitaxel, 48 hours
Protocol: FIG. 25E is the results of Annexin-V apoptosis assay in H460 cells treated for 48 hours with vehicle or paclitaxel 10 nM, quantification right panel.
Cells were seeded into 6 well tissue culture plates to give approximately 50% confluence and allowed to attach overnight. The cells were then treated for a period of time indicated in figure legend with the appropriate compound at various concentrations (see figure legends). An Annexin V-conjugate PerCP-eFluor 710 apoptosis detection kit was used as described by the manufacturer's protocol (eBioscience 88-8008). Harvesting of cells included collection of floating and attached cells following trypsinization. Data were acquired using an CytoFLEX S flow cytometer (Beckman Coulter, Brea, Calif.) and 10,000 events on the PC5.5 channel were analyzed using CytExpert software (Beckman Coulter). For Nur77 GFP tagged annexin V analysis, GFP positive population were selected and then Annexin V+population was determined. For each sample, 10,000 GFP+ events were collected. Annexin V positive cell population was considered to be the apoptotic population, and the percent of annexin V positive cell population was used to determine the extent of apoptosis.

[6] = tested on: H460 parental and resistant cells; experiment: Colony formation (2D clonogenic, 3D soft agar) of H460 parental and resistant cells; details: 10 nM paclitaxel, continuously for 14 days
Description: Colony forming ability (%) relative to vehicle treatment. Representative of three independent conducted assays in triplicate.

Molecule | Bcl-2 dependent effects in Jurkat Lymphoma cells [2] | minimal effective concentration [2] [µM] | also measured
2-Iodo acetamide [Iodoacetamide, reference compound] |  |  | Bcl-2 selective reduction in viability, MDA-MB-231/Bcl-2 vs MDA-MB-231/Vector [1]: selectively induce more cell death in high-Bcl-2 expressing MDA-MB-231 cells
O=c1[nH]cc(F)c(=O)[nH]1 [5-fluoro uracil, reference compound] |  |  | Effect of Bcl-2 expression on Jurkat cells exposed to cancer therapeutics [2]: Bcl-2 expression protected Jurkat cells; Cross-resistance of MDA-MB-468 paclitaxel-resistant line [3]: cross-resistant
COc1ccc([N+](=O)[O-])cc1CSc1nc2sc3c(c2c(=O)n1-c1ccccc1)CCCC3 [BFC1111, 2-[(2-methoxy-5-nitrobenzyl)thio]-3-phenyl-5,6,7,8-tetrahydro[1] benzothieno[2,3-d]pyrimidin-4(3H)-one] |  |  | Viability of H460 resistant vs parental line ([4]; 72 hours): reduced viability of resistant line preferentially; Bcl-2 selective reduction in viability, MDA-MB-231/Bcl-2 vs MDA-MB-231/Vector ([1]; listed as BFC1110-A): good Bcl-2 dependent effects in MDA-MB-231 cells; also recorded: comparable Bcl-2 selective induction of cell death as the parent BFC1110
Nc1nc(N)c2nc(CNc3ccc(C(=O)N[C@@H](CCC(=O)O)C(=O)O)cc3)cnc2n1 [Compound 1] | Yes | 0.01 | 
CN(Cc1cnc2nc(N)nc(N)c2n1)c1c(Cl)cc(C(=O)N[C@@H](CCC(=O)O)C(=O)O)cc1Cl [Compound 2] | Yes | 0.001 | 
Nc1nc(N)c2nc(CNc3ccc(C(=O)N[C@@H](CC(=O)O)C(=O)O)cc3)cnc2n1 [Compound 3] | Yes | 10 | 
CC(Nc1ccc(C(=O)N[C@@H](CCC(=O)O)C(=O)O)cc1)c1cnc2nc(N)nc(O)c2n1 (some centres unmarked) [Compound 4] | No |  | 
CN(Cc1cnc2nc(N)nc(N)c2n1)c1ccc(C(=O)N[C@@H](CCC(=O)O)C(=O)O)cc1F [Compound 5] | Yes | 0.01 | 
CN(Cc1cnc2nc(N)nc(N)c2n1)c1c(F)cc(C(=O)N[C@@H](CCC(=O)O)C(=O)O)cc1F [Compound 6] | Yes | 0.01 | 
Cc1cc(C(=O)O)cc(C)c1N(C)Cc1cnc2nc(N)nc(N)c2n1 [Compound 7] | No |  | 
C=CCN(Cc1cnc2nc(N)nc(N)c2n1)c1ccc(C(=O)N[C@@H](CCC(=O)O)C(=O)O)cc1 [Compound 8] | Yes | 0.01 | 
CN(Cc1cnc2nc(N)nc(N)c2n1)c1cc(Cl)c(C(=O)N[C@@H](CCC(=O)O)C(=O)O)c(Cl)c1 [Compound 9] | Yes | 1 | 
Nc1nc(N)c2nc(CC3CCCc4cc(C(=O)N[C@@H](CCC(=O)O)C(=O)O)ccc43)cnc2n1 (some centres unmarked) [Compound 10] | Yes | 0.1 | 
CN(Cc1cnc2nc(N)nc(N)c2n1)c1ccc(C(=O)N[C@@H](CCC(=O)O)C(=O)O)c2ccccc12 [Compound 11] | Yes | 0.001 | 
Nc1nc(N)c2nc3c(nc2n1)C(=O)N(c1ccc(C(=O)O)cc1)C3 [Compound 12] | No |  | 
O=P1(N(CCCl)CCCl)NCCCO1 (centres unmarked) [cyclophosphamide, reference compound] |  |  | Effect of Bcl-2 expression on Jurkat cells exposed to cancer therapeutics [2]: Bcl-2 expression protected Jurkat cells
COc1cccc2c1C(=O)c1c(O)c3c(c(O)c1C2=O)C[C@@](O)(C(=O)CO)C[C@@H]3O[C@H]1C[C@H](N)[C@H](O)[C@H](C)O1 [doxorubicin, reference compound] |  |  | Effect of Bcl-2 expression on Jurkat cells exposed to cancer therapeutics [2]: Bcl-2 expression protected Jurkat cells; Cross-resistance of MDA-MB-468 paclitaxel-resistant line [3]: cross-resistant; Susceptibility of H460 paclitaxel resistant line (cross resistance) ([4]; viability assays and colony formation assays): paclitaxel resistant line was also less susceptible to doxorubicin treatment
Nc1ccn([C@@H]2O[C@H](CO)[C@@H](O)C2(F)F)c(=O)n1 [gemcitabine, reference compound] |  |  | Effect of Bcl-2 expression on Jurkat cells exposed to cancer therapeutics [2]: Bcl-2 expression protected Jurkat cells
CS(=O)(=O)CCNCc1ccc(-c2ccc3ncnc(Nc4ccc(OCc5cccc(F)c5)c(Cl)c4)c3c2)o1 [lapatinib, reference compound] |  |  | Effect of Bcl-2 expression on Jurkat cells exposed to cancer therapeutics [2]: Bcl-2 expression protected Jurkat cells
CC(=O)O[C@H]1C(=O)[C@@]2(C)[C@H]([C@H](OC(=O)c3ccccc3)[C@]3(O)C[C@H](OC(=O)[C@H](O)[C@@H](NC(=O)c4ccccc4)c4ccccc4)C(C)=C1C3(C)C)[C@]1(OC(C)=O)CO[C@@H]1C[C@@H]2O [paclitaxel, reference compound] |  |  | Viability of MDA-MB-468 parental and paclitaxel resistant lines ([3]; paclitaxel): derived resistant line viability was unaffected by 50 nM, however parental line was sensitive; Reduction of viability of H460 parental cells ([4]; paclitaxel, 72 hours): 90%; Viability of H460 paclitaxel resistant line ([4]; paclitaxel, 72 hours): unaffected; Induction of apoptosis (Annexin V), H460 resistant vs parental [5]: minimal induction of apoptosis in the derived H460 resistant line compared to parental sensitive line; Viability of MDA-MB-231 cells expressing pcDNA vector or Bcl-2 ([1]; paclitaxel 10 nM): reduced viability of MDA-MB-231 cells transfected with pcDNA vector, while Bcl-2 transfected MDA-MB-231 cells were partially resistant; Colony formation in 2D and 3D soft agar assays, H460 parental and resistant [6]: inhibited the parental cells ability to form colonies in 2D and 3D soft agar assays, while resistant lines tumorigenicity was unchanged
